Experimental data as given in patent US20230200424A1, “COMPOSITIONS COMPRISING CYS-PEPTIDES” (Evonik Operations GmbH, priority 2020, published 2023).
“Also recorded” adds a separate entry of the source. Like-named read-outs stand apart in the source and are kept apart here. Where a SMILES comes first, the peptide text is derived from it. Bridges are numbered along the chain shown (N, C = ends). Roman numbers before positions name the chains, in order.

Key:
[1] = Solubility of (Ala-Cys)2 and its solubilization by addition of cysteine, turbidity at 600 nm; assay type: physicochemical
Procedure: Turbid suspensions of 50 mM (Ala-Cys)2 in phosphate buffer at pH=7 were prepared and increasing amounts of cysteine were added. The mixtures were incubated at 37° C. in a microtiter plate (liquid volume per well was 200 μl) and turbidity at 600 nm was measured after 30 minutes. At concentrations of 20 mM of cysteine and higher, (Ala-Cys)2 was fully solubilized and no further reduction of turbidity was measured. Solutions were visually transparent (see FIG. 2).

[2] = Stabilization of 25 mM and 50 mM cysteine solutions against precipitation by Cys-dipeptides under oxidizing conditions (H2O2), turbidity at 600 nm; assay type: physicochemical; conditions: H2O2 added, after 4.5 hours
Procedure: (§1) Turbidity caused by precipitation was measured photometrically at 600 nm in a microtiter plate-based assay. Liquid volume per well was 200 μl and measurements were conducted over 24 hours at 37° C. in a microplate reader (Tecan). The plates were not covered with a lid.
(§2) An experiment as described in example 1 was conducted in a microtiter plate. After two hours of incubation at 37° C., 14 μl of a 5 weight % H2O2 solution were added to each well to accelerate oxidation and evaluate stabilization under fully oxidized conditions. […] Turbidity measurements in the microplate reader were continued subsequently. Results are shown in Fehler! Verweisquelle konnte nicht gefunden werden.
To evaluate if the above described stabilization is also possible by addition of other Cys-dipeptides, experiments as described in example 4 were conducted with the exception that reduced cysteine concentrations of 50 mM and 25 mM were used and that the concentrations of added Cys-dipeptides were 0 (=control), 5, 10, 25 and 50 mM. The effect of (Asp-Cys)2, (Cys-Asp)2, (Lys-Cys)2, (Cys-Lys)2, (Ala-Cys)2 and (Pro-Cys)2 was evaluated. All Cys-peptides were able to prevent precipitation from the cysteine solutions after addition of H2O2 Differences in stabilization efficiency were observed between the various Cys-Peptides at cysteine concentrations of 50 mM. The Cys-dipeptides containing lysine residues were the most efficient stabilizers and a molar Cys-peptide to cysteine ratio between 1:2 and 1:5 provided sufficient stability.

[3] = Stabilization of 50 mM cysteine solution against precipitation by reduced and oxidized Cys-dipeptides under oxidizing conditions (H2O2), turbidity at 600 nm; assay type: physicochemical; conditions: H2O2 added; for Turbidity at 600 nm: after 4.5 hours
Procedure: as §1, §2
To evaluate if the above described stabilization is also possible by addition of reduced Cys-dipeptides (=free thiol), the same experimental setup as described in example 4 was chosen. In this case, various concentrations of the reduced dipeptide Cys-Gly and of the oxidized dipeptide (Cys-Gly)2 were added to a 50 mM cysteine solution. Both Cys-peptides were able to prevent precipitation from the cysteine solutions after addition of H2O2.

[4] = Precipitation from a 100 mM cysteine solution with added (Lys-Cys)2, turbidity at 600 nm in microtiter plate; assay type: physicochemical; conditions: 24 hours
Procedure: Solutions of substances and dilutions thereof were prepared in 100 mM phosphate buffer, pH=7 in all experiments in all examples. Precipitation could be avoided in a 100 mM solution of cysteine in a 100 mM phosphate buffer at pH=7 by the addition of suitable concentrations of (Lys-Cys)2.
as §1
When 100 mM solutions of cysteine were prepared with 0, 100, 200 or 400 mM (Lys-Cys)2×2 HCl at pH=7, a surprising result was obtained. Precipitation could be seen and measured in the absence of added peptide. […] The precipitates could be observed visually and measured via turbidimetry (see FIG. 1).

[5] = Stabilization of a 100 mM cysteine solution against precipitation by (Lys-Cys)2 under oxidizing conditions (H2O2), turbidity; assay type: physicochemical
Procedure: as §1, §2
The mixtures were incubated in a microplate for 2 hours at 37° C. and turbidity was measured photometrically. H2O2 was subsequently added to accelerate oxidation and evaluate stability against precipitation under fully oxidized conditions. Turbidity measurement was continued directly after H2O2 addition. With cysteine alone, the solution turned directly and visibly turbid, when H2O2 was added. With increasing amounts of added (Lys-Cys)2, the amount of precipitate measured via turbidity was reduced.

[6] = pH range between 3 and 9; cited from earlier work
[7] = 25 mM cysteine solution, Cys-peptide 5 mM
[8] = 25 mM cysteine solution, Cys-peptide 10 mM
[9] = 25 mM cysteine solution, Cys-peptide 25 mM
[10] = 25 mM cysteine solution, Cys-peptide 50 mM
[11] = 50 mM cysteine solution, Cys-peptide 5 mM
[12] = 50 mM cysteine solution, Cys-peptide 10 mM
[13] = 50 mM cysteine solution, Cys-peptide 25 mM
[14] = 50 mM cysteine solution, Cys-peptide 50 mM

Turbidity at 600 nm [2, 7] [AU]	Turbidity at 600 nm [2, 8] [AU]	Turbidity at 600 nm [2, 9] [AU]	Turbidity at 600 nm [2, 10] [AU]	Turbidity at 600 nm [2, 11] [AU]	Turbidity at 600 nm [2, 12] [AU]	Turbidity at 600 nm [2, 13] [AU]	Turbidity at 600 nm [2, 14] [AU]	Compound	further results
								C[C@H](N)C(=O)N[C@@H](CSSC[C@H](NC(=O)[C@H](C)N)C(=O)O)C(=O)O [(Ala-Cys)2] (I: H-Ala-Cys-OH / II: H-Ala-Cys-OH; disulfide I:2-II:2; N-terminus and C-terminus assumed)	solubility ([1]; 50 mM (Ala-Cys)2 suspension, phosphate buffer pH=7, 37° C., turbidity at 600 nm after 30 minutes, read-out: concentration of cysteine at which 50 mM (Ala-Cys)2 was fully solubilized): ≥ 20 mM; solubility ([1]; pH=7 and 37° C., read-out: maximum solubility): < 50 mM
0.038	0.039	0.038	0.040	1.453	1.301	0.039	0.042	(Asp-Cys)2	
0.081	0.037	0.038	0.040	1.702	1.523	0.279	0.039	(Cys-Asp)2	
0.078	0.039	0.040	0.042	1.539	1.379	0.762	0.118	(Pro-Cys)2	
								(Cys-Gly)2	Turbidity at 600 nm ([3]; Cys-peptide 5 mM): 1.07 AU; Turbidity at 600 nm ([3]; Cys-peptide 10 mM): 0.07 AU; Turbidity at 600 nm ([3]; Cys-peptide 25 mM): 0.04 AU; Turbidity at 600 nm ([3]; Cys-peptide 50 mM): 0.04 AU; peptide concentration at which precipitation was completely suppressed [3]: 25 mM
0.044	0.050	0.068	0.084	0.390	0.092	0.067	0.077	(Cys-Lys)2	
0.039	0.041	0.042	0.047	0.946	0.556	0.045	0.047	(Lys-Cys)2	precipitation (visual, turbidimetry) ([4]; 100 mM cysteine with 100 mM (Lys-Cys)2, pH=7, 37° C.): accelerated precipitation; precipitation (visual, turbidimetry) ([4]; 100 mM cysteine with 200 mM (Lys-Cys)2, pH=7, 37° C.): effectively prevented precipitation; precipitation (visual, turbidimetry) ([4]; 100 mM cysteine with 400 mM (Lys-Cys)2, pH=7, 37° C.): effectively prevented precipitation; precipitate after H2O2 addition ([5]; 100 mM cysteine with 400 mM (Lys-Cys)2): no precipitate was observed; also recorded: remained completely clear; turbidity directly after addition of H2O2 ([5]; 100 mM cysteine with (Lys-Cys)2, 2 hours at 37° C., then H2O2): no immediate increase in turbidity was observed; turbidity increase after H2O2 addition ([5]; 100 mM cysteine, increasing concentrations of (Lys-Cys)2): strongly reduced
								N[C@@H](CSSC[C@H](N)C(=O)O)C(=O)O [cystine]	solubility [6]: < 1 mM
								Cys-Gly	Turbidity at 600 nm ([3]; Cys-peptide 5 mM): 0.58 AU; Turbidity at 600 nm ([3]; Cys-peptide 10 mM): 0.37 AU; Turbidity at 600 nm ([3]; Cys-peptide 25 mM): 0.26 AU; Turbidity at 600 nm ([3]; Cys-peptide 50 mM): 0.04 AU; peptide concentration at which precipitation was completely suppressed [3]: 50 mM
